Some test systems named below: DMS-114; XF498; SNB-78; M19-MEL; HOP-18; RXF 631; BT-549; DU-145; NCI/ADR-RES.
Holding throughout (test): NCI-60 cell line screen, 48 h

Structures are written as SMILES. Where a name gives a salt, the structure may show the parent alone.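 Tested at 5 concentrations; 48 h exposure; 96-well plates; endpoints linearly interpolated, else capped at highest concentration. The concentration for 50% growth inhibition is given as GI50.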 Calls of active or inactive are those of the source. Rule as the data show it: active = GI50 up to about 1.1 µM and inactive = higher.

For the compound `O=c1ccc(=O)c2c(=O)c3ccccc3c(=O)c1=2`, the GI50 in the test on DMS-114 is 29 µM (inactive); with XF498 it was > 100 µM (inactive); in the test on SNB-78, 60.5 µM (inactive); in the test with M19-MEL, 14.3 µM (inactive).

Take `O=C(O)C1c2ccccc2C(C(=O)O)c2ccccc21` (stereo unspecified): the GI50 in the test on DMS-114, with HOP-18, with SNB-78 and in the test with M19-MEL was > 100 µM (inactive) throughout.

Turning to `COc1ccc(-c2ccccc2)c(N/N=C2\CCCNC2=O)c1`, the GI50 was > 100 µM (inactive) in the test on DMS-114; 18.7 µM (inactive) with XF498; > 100 µM (inactive) with HOP-18; 93.5 µM (inactive) with SNB-78; > 100 µM (inactive) in the test on M19-MEL.

Turning to `O=S1(=O)OCCOS(=O)(=O)C1(Br)Br`, the GI50 with DMS-114, in the test on SNB-78 and in the test on M19-MEL was > 100 µM (inactive) each time.

In the case of `CC(C)OP(=O)(OC(C)C)/C(=N/Nc1ccc([N+](=O)[O-])cc1)NN`, the GI50 is 61.1 µM (inactive) with DMS-114, 68.9 µM (inactive) in the test on XF498, > 100 µM (inactive) in the test with SNB-78 and > 100 µM (inactive) with M19-MEL.

As to `[O-]/N=[N+](/[O-])C1CCCCC1=[N+]1CCOCC1` (stereo unspecified), the GI50 with DMS-114 is > 100 µM (inactive); in the test on XF498, 0.157 µM (active); with SNB-78, > 100 µM (inactive); in the test on M19-MEL, > 100 µM (inactive).

As for `CC1CC(c2ccc(Cl)c(Cl)c2)=Nc2ccccc2S1` (stereo unspecified), the GI50 in the test with DMS-114, in the test on XF498, in the test with HOP-18, in the test on SNB-78 and in the test with M19-MEL was > 100 µM (inactive) in each case.

`O=C1c2ccccc2C(=O)c2nc3c(O)cccc3cc21`: the GI50 was 3.81 µM (inactive) in the test on DMS-114, 24.9 µM (inactive) in the test with HOP-18, 36.2 µM (inactive) with RXF 631 and 2.12 µM (inactive) in the test with M19-MEL.

Consider `CC(C)(C)/N=C/N1C=Cc2nc3ccccc3cc2C1`, for which the GI50 with DMS-114, in the test with XF498, in the test on HOP-18, in the test on RXF 631, in the test on SNB-78 and in the test with M19-MEL was > 100 µM (inactive) throughout.

Regarding `O=C1C(Cl)=C(Cl)C(=O)N1C1C2CC3CC(C2)CC1C3` (stereo unspecified), the GI50 in the test with DMS-114, in the test with XF498, with HOP-18, in the test on SNB-78 and with M19-MEL was > 100 µM (inactive) in each case.

In the case of `CN1c2ccccc2N(C)C23N(C)c4ccccc4N(C)C12N(C)c1ccccc1N3C` (stereo unspecified), the GI50 was > 100 µM (inactive) with DMS-114, 49.1 µM (inactive) with XF498, > 100 µM (inactive) in the test with RXF 631 and > 100 µM (inactive) in the test with M19-MEL.

Regarding `CC1=NOC(=O)/C1=C/c1ccc([N+](=O)[O-])cc1`, the GI50 in the test with DMS-114, in the test with XF498, with HOP-18, in the test on RXF 631 and in the test with SNB-78 was > 100 µM (inactive) in each case.

Regarding `O=[N+]([O-])c1nccn1COCCF`, the GI50 in the test on DMS-114, in the test on XF498, in the test with SNB-78 and in the test on M19-MEL was > 100 µM (inactive) each time.

Turning to `N#CC(C#N)SCc1ccccc1`, the GI50 with BT-549 was 1.85 µM (inactive); in the test on DMS-114, 24.4 µM (inactive); in the test on DU-145 it was 22.9 µM (inactive); in the test on NCI/ADR-RES, 6.64 µM (inactive); with SNB-78, 33 µM (inactive); in the test on M19-MEL, 54.1 µM (inactive).

For the compound `COC(=O)/C(C=O)=C/Sc1ccccc1`, the GI50 in the test with DMS-114 is 16.7 µM (inactive); in the test on XF498, 40 µM (inactive); in the test with HOP-18, > 100 µM (inactive); in the test with RXF 631 it was 14.9 µM (inactive); in the test on SNB-78 it was 26.5 µM (inactive); in the test on M19-MEL it was 20 µM (inactive).

`O=C(c1cc2ccccc2[nH]1)C(O)(c1cc2ccccc2[nH]1)c1cc2ccccc2[nH]1`: the GI50 with DMS-114 and in the test on RXF 631 was > 246 µM (inactive) each time.

Turning to `CCOC(=O)C(=O)Nc1c(CC)cccc1C(C)C`, the GI50 in the test on XF498, in the test on SNB-78 and with M19-MEL was > 100 µM (inactive) each time.

Turning to `COc1ccc(-c2cc(O)c3cc(Cl)ccc3n2)cc1`, the GI50 in the test with DMS-114 is > 100 µM (inactive); in the test with XF498 it was > 100 µM (inactive); with HOP-18, 54.5 µM (inactive); in the test with RXF 631 it was > 100 µM (inactive); in the test on SNB-78 it was > 100 µM (inactive); in the test on M19-MEL it was > 100 µM (inactive).

For `CC1=C(O)C(=O)c2cn(C)cc2C1=O`, the GI50 with DMS-114, in the test on XF498, in the test with HOP-18, in the test with SNB-78 and in the test on M19-MEL was > 100 µM (inactive) in each case.

As to `CC(=O)c1sc(Nc2nnc(-c3ccc(-c4nnc(Nc5nc(C)c(C(C)=O)s5)o4)cc3)o2)nc1C`, the GI50 in the test on DMS-114, in the test on HOP-18 and in the test with SNB-78 was > 100 µM (inactive) each time.

`CC/C(SC)=[N+](\C)[O-]`: the GI50 in the test with DMS-114 is > 39 µM (inactive); with XF498, > 100 µM (inactive); with HOP-18, > 100 µM (inactive); in the test on RXF 631, > 100 µM (inactive); in the test on SNB-78, > 100 µM (inactive); in the test with M19-MEL, > 100 µM (inactive).

In the case of `Cc1cccc(N(CCC#N)S(=O)(=O)c2ccccc2)c1`, the GI50 in the test with BT-549, in the test with DU-145 and in the test on NCI/ADR-RES was > 100 µM (inactive) in each case.

For `Nc1cc(CO)cc(Nc2nc3ccc(Cl)cc3c3[nH]c4ccccc4c23)c1`, the results for the GI50 in the test with BT-549, in the test on DU-145 and in the test on NCI/ADR-RES were 10.9 µM (inactive), 3.65 µM (inactive) and 8.45 µM (inactive), respectively.

For `O=C(CSCC(=O)N/N=C/c1ccncc1)N/N=C/c1ccncc1`, the GI50 in the test with BT-549, in the test with DU-145 and in the test on NCI/ADR-RES was > 100 µM (inactive) in each case.

As to `C/C(=N\Nc1nc2ccccc2[nH]1)c1ccc2ccccc2n1`, the GI50 is > 100 µM (inactive) with BT-549, 1.91 µM (inactive) in the test with DU-145 and 1.85 µM (inactive) in the test with NCI/ADR-RES.

Turning to `CC(=O)C1(Cc2cccc3ccccc23)S(=O)(=O)OCCOS1(=O)=O`, the GI50 in the test with BT-549 is 16.9 µM (inactive); with DU-145, 18.4 µM (inactive); in the test with NCI/ADR-RES, 21.8 µM (inactive).

For the compound `C[n+]1c2ccccc2c(NC(CCCNC(=N)N)C(=O)O)c2ccccc21` (stereo unspecified), the GI50 in the test on DMS-114, in the test on XF498, in the test on HOP-18, with SNB-78 and in the test on M19-MEL was > 100 µM (inactive) in each case.

As for `CO/C(=C/C(=O)C(Cl)(Cl)Cl)CC/C(=C\C(=O)C(Cl)(Cl)Cl)OC`, the GI50 with BT-549 is 27.9 µM (inactive); in the test on DU-145 it was 25.1 µM (inactive); in the test on NCI/ADR-RES, 29.5 µM (inactive).

On to `COc1ccc2[nH]c3c(c2c1)[C@H]1CCC(C(C)(C)C)C[C@H]1[C@H]1C(=O)N(c2ccccc2)C(=O)[C@@H]31` (stereo partly specified), for which the GI50 in the test with DMS-114 is 21.9 µM (inactive); in the test with XF498, 9.91 µM (inactive); in the test with HOP-18, 25.6 µM (inactive); in the test with RXF 631, 6.15 µM (inactive); in the test on M19-MEL, 26.1 µM (inactive).

With `O=C(/C=C/c1ccc(-c2ccccc2)cc1)NCc1ccc(C(=O)NCCc2c[nH]c3ccccc23)cc1`, the results for the GI50 in the test on BT-549, in the test on DU-145 and with NCI/ADR-RES were 37.2 µM (inactive), > 100 µM (inactive) and 60 µM (inactive), respectively.

On to `O=C(CC1(O)C(=O)Nc2ccc(Br)cc21)c1cccc([N+](=O)[O-])c1` (stereo unspecified), for which the results for the GI50 with HOP-18, in the test with RXF 631 and in the test with SNB-78 were 23.6 µM (inactive), > 100 µM (inactive) and 37.8 µM (inactive), respectively.

In the case of `CNNCc1ccc(C(=O)NC(C)C)cc1` [PROCARBAZINE HYDROCHLORIDE], the GI50 with BT-549 is > 500 µM (inactive); in the test on DU-145, > 500 µM (inactive); in the test with NCI/ADR-RES, > 500 µM (inactive); in the test on XF498, > 500 µM (inactive); in the test on HOP-18, 138 µM (inactive); with SNB-78 it was > 500 µM (inactive). Moreover, in the test with M19-MEL, the GI50 is > 500 µM (inactive).

For the compound `COC(=O)C1=C(C[S+]([O-])c2ccccc2[N+](=O)[O-])ON(C)C1c1ccccc1` (stereo unspecified), the GI50 was 24.7 µM (inactive) in the test on DMS-114; 31.1 µM (inactive) in the test on XF498; 52.2 µM (inactive) with HOP-18; 82 µM (inactive) in the test with SNB-78; 47 µM (inactive) in the test with M19-MEL.

In the case of `O=C1OC(c2ccccc2)=N/C1=C/NC(Cc1c[nH]c2ccccc12)C(=O)O` (stereo unspecified), the GI50 in the test with DMS-114, in the test on XF498, with SNB-78 and in the test on M19-MEL was > 100 µM (inactive) in each case.

For the compound `CC(=O)NNc1nc(C)c(C(/C=C/c2ccc([N+](=O)[O-])cc2)=N/NC(N)=O)s1`, the GI50 with BT-549, with DU-145 and in the test on NCI/ADR-RES was > 100 µM (inactive) throughout.

In the case of `CN(C)CCCNC(=O)c1c(O)c2ccccc2n(C)c1=O`, the GI50 in the test with BT-549 was 70 µM (inactive); with DU-145, > 100 µM (inactive); with NCI/ADR-RES, 41.2 µM (inactive).

Turning to `O=C1NC2CCC(C2)C1c1ccccc1` (stereo unspecified), the GI50 with DMS-114, in the test with HOP-18, with RXF 631, in the test on SNB-78 and in the test with M19-MEL was > 100 µM (inactive) each time.

Consider `CN1CCc2cc(O)c3cc2C1Cc1ccc(cc1)Oc1cc(ccc1O)CC1c2c(cc4c(c2O3)OCO4)CCN1C` (stereo unspecified), for which the GI50 with DMS-114 was 18.2 µM (inactive); with XF498 it was 14.4 µM (inactive); in the test with SNB-78, > 100 µM (inactive).

Turning to `O=C(CCc1nnc2s/c(=C\c3ccccc3Cl)c(=O)n12)Nc1cc(Cl)ccc1Cl`, the GI50 in the test with DMS-114 was > 100 µM (inactive); with XF498, 70.8 µM (inactive); in the test with HOP-18, > 100 µM (inactive); with SNB-78, > 100 µM (inactive); with M19-MEL it was > 100 µM (inactive).

`COC(=O)c1cc(CC(C)C)c2c(c1)[nH]c1ccccc12`: the GI50 in the test with DMS-114 is 50.4 µM (inactive); in the test on XF498, > 100 µM (inactive); in the test with M19-MEL, > 100 µM (inactive).

The values above are taken from ChEMBL document CHEMBL1201862, “PubChem BioAssay data set” (2004).
